# Patent US20190234936A1 (priority 2016, published 2019)
# Test system: human neutrophils
# Assay type: cell-based
compound,measurement,value
"CCCCCCCCCCCCCC(=O)O[C@@H]1[C@@H](C)[C@@]2(O)[C@@H](C=C(CO)C[C@]3(O)C(=O)C(C)=C[C@@H]23)[C@@H]2C(C)(C)[C@]12OC(C)=O [PMA, phorbol 12-myristate 13-acetate]",NET formation (DNA staining),abundant lattices of extracellular NET-DNA filaments
